In ChEMBL document CHEMBL4673185 (RSC Med Chem, 2020) one finds EC50 data, which are given here for 1 molecule.

Residues, ends and D or L forms follow the SMILES beside them.

In the test the target is T1, Acid-sensing ion channel 3 (Rattus norvegicus, UniProt O35240).
T1 sequence (O35240 whole entry): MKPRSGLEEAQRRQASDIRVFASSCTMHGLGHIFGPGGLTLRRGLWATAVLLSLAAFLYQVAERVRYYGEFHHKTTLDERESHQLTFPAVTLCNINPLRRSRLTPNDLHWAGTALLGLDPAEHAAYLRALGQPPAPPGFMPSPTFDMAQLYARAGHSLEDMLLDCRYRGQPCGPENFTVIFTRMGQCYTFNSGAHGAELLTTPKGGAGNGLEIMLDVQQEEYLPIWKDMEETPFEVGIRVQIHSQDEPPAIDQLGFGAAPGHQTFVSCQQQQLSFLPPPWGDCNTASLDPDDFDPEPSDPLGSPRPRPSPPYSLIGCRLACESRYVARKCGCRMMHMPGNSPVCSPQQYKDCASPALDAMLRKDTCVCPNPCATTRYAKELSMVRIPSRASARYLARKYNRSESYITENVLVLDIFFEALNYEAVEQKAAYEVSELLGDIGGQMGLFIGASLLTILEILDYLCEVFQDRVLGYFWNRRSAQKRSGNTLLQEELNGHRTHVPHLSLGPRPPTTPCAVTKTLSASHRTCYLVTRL
Description: Modulation of rat ASIC3 expressed in Xenopus laevis oocytes at -70 mV holding potential by two-electrode voltage clamp method. It is filed as cell-based. Background: Two-electrode voltage clamp is typically applied to oocytes expressing channels or transporters.

As to `N=C(N)NCCC[C@H](NC(=O)[C@@H]1CCCN1C(=O)[C@@H](N)CCCNC(=N)N)C(=O)N[C@@H](Cc1ccccc1)C(=O)O` (H-RPRF-OH), the EC50 (in general, the concentration needed to bring the measured effect to its halfway point) turned out to be 3 µM.
